In patent publication US9840498B2, “Substituted quinazolin-4-one derivatives” (NOVARTIS AG, priority 2013, dated 2017) one finds IC50 data, which are given here for nine compounds.

For assay [1], the target named is human phosphoinositide-3 kinase (PI3K) alpha (Homo sapiens (Human), UniProt P42336). The experiment in a line: PI3K-mediated Akt 1/2 (S473) phosphorylation in Rat-1 cells overexpressing PI3K alpha. The format is cell-based, rat cells expressing human PI3K alpha. The conditions noted are these: cellular assay, p-AKT(Ser473), read-out: Cell PI3K alpha IC50. As to the method:
(§1) 2.1 Phosphoinositide-3 kinase (PI3K)-Mediated Akt 1/2 (S473) Phosphorylation in Rat-1 Cells
(§2) Rat-1 cells stably overexpressing a myristoylated form of the catalytic subunit of human phosphoinositide-3 kinase (PI3K) alpha, beta or delta were plated in 384-well plates at a density of 7500 (PI3K alpha), 6200 (PI3K beta), or 4000 (PI3K delta) cells in 30 ul complete growth medium (Dulbecco's modified Eagle's medium (DMEM high glucose) supplemented with 10% (v/v) fetal bovine serum, 1% (v/v) MEM non essential amino acids, 10 mM HEPES, 2 mM L-glutamine, 10 μg/mL puromycin and 1% (v/v) Penicillin/Streptomycin) and were incubated at […]/5% CO2/95% humidity for 24 h. Compounds were diluted in 384-well compound plates (compound master plates), to obtain 8-point serial dilutions for 40 test compounds in 90% DMSO, as well as 4 reference compounds plus 16 high controls and 16 low (inhibited) controls. Predilution plates were prepared by dispensing pipetting 250 nl of compound solutions into 384-well polypropylen plates (daugther plates), using a Hummingwell nanoliter dispenser. Compounds were prediluted by the addition of 49.75 ul complete growth medium. 10 ul of prediluted compound solution were transferred to the cell plate using a 384-well pipettor, resulting in a final DMSO concentration of 0.11%. Cells were incubated for 1 h at […]/5% CO2/95% humidity. The supernatant was removed, the cells were lysed in 20 ul of lysis buffer for AlphaScreen® SureFire® detection.
(§3) For detection of p-AKT(Ser473), the SureFire® p-Akt 1/2 (Ser473) Assay Kit (PerkinElmer, U.S.A.) was used. 5 ul of cell lysate was transferred to 384-well low volume Proxiplates for detection using a 384-well pipettor. Addition of AlphaScreen® SureFire® reagents was done according to the manufacturer's protocol. First, 5 ul of reaction buffer plus activation buffer mix containing AlphaScreen® acceptor beads was added, the plate was sealed, and incubated on a plate shaker for 2 hours at room temperature. Second, 2 ul of dilution buffer containing AlphaScreen® donor beads was added, and the plate was incubated on plate shaker as above for a further 2 hours. The plate was read on an AlphaScreen® compatible plate reader, using standard AlphaScreen® settings. Alternatively, p-AKT(Ser473) was detected with the CisBio HTRF Assay Kit: As positive control, 0.9 mM of 1-(3-(trifluoromethyl)-4-(piperazin-1-yl)phenyl)-8-(6-methoxypyridin-3-yl)-3-methyl-1H-imidazo[4,5-c]quinolin-2(3H)-one maleic acid salt in 90% (v/v) DMSO was added to the compound master plate. For compound testing, the cells were seeded at a density of 4000 (Rat-1_PI3Kdelta), 8000 (Rat-1_PI3Kalpha), or 6500 (Rat-1_PI3Kbeta) cells in 30 ul complete growth medium into 384-well plates, with a plastic surface promoting the adhesion of cells and their growth (assay plates) and were grown at 37° C./5% CO2/90% humidity for 24 h. Some 10 ul of the compound predilutions from the daughter plate were then transferred to the cells. After treatment with compound for 1 h, medium was removed and cells were lysed by the addition of 20 ul lysis buffer supplemented with blocking buffer. Detection of p-AKT(Ser473) was performed with the HTRF pAKT (Ser473) assay kit according to the manufacturer's instructions using 16 ul of cell lysate in a total detection volume of 20 ul.

The target of assay [2] is human phosphoinositide-3 kinase (PI3K) delta (Homo sapiens (Human), UniProt O00329). The experiment in a line: PI3K-mediated Akt 1/2 (S473) phosphorylation in Rat-1 cells overexpressing PI3K delta. The following applies: cellular assay, p-AKT(Ser473), read-out: Cell PI3K delta IC50. In kind it is cell-based. As to the method:
as §1, §2, §3

SMILES strings stand for the structures.

human phosphoinositide-3 kinase (PI3K) alpha, sequence (P42336 whole entry): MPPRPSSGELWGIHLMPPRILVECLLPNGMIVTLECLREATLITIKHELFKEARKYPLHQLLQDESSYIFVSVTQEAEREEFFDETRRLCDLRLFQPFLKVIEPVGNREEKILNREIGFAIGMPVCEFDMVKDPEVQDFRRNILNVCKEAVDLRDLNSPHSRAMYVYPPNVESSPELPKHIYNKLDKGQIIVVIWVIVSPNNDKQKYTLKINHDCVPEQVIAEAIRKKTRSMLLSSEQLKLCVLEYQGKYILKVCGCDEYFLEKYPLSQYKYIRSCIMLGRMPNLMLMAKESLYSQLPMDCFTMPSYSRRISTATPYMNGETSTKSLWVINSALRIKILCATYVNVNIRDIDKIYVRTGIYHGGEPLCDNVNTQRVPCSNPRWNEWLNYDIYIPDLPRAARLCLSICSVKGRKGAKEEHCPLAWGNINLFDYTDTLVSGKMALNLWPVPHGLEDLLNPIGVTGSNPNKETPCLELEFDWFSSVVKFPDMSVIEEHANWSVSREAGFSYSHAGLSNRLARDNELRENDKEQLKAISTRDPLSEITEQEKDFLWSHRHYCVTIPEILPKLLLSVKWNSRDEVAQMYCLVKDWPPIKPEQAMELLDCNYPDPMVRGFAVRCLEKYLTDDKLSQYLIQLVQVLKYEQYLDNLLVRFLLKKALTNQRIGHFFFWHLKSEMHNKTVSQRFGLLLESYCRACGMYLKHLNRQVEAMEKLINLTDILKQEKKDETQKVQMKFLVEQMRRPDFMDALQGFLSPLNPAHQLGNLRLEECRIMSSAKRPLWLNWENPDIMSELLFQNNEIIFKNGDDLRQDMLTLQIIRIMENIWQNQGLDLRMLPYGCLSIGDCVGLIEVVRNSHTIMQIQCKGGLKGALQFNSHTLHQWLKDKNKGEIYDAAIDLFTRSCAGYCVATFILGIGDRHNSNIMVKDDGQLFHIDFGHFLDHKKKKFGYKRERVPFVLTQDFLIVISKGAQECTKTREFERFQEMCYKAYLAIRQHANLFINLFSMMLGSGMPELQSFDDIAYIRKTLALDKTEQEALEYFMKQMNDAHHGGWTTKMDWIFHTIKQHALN
human phosphoinositide-3 kinase (PI3K) alpha, sequence (Q63787 whole entry partner): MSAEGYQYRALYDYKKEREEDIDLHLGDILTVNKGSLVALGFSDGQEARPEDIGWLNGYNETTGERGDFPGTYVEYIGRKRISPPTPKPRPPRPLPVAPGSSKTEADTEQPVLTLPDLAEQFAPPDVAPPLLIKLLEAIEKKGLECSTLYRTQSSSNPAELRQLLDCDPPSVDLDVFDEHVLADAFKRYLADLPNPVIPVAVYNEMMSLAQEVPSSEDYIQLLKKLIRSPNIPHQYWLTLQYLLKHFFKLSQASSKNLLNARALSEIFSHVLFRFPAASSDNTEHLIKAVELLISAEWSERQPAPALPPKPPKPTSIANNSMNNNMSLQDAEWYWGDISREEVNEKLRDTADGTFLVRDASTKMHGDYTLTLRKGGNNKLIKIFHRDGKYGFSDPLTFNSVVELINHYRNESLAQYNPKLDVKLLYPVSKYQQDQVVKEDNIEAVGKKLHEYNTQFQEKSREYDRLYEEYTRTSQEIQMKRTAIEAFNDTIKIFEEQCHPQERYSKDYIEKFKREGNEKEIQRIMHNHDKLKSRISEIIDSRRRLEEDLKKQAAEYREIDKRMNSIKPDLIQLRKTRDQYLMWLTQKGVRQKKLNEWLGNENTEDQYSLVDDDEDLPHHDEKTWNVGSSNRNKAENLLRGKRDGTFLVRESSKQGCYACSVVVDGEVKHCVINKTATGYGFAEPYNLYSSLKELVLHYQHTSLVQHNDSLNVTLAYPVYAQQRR
human phosphoinositide-3 kinase (PI3K) delta, sequence (O00329 whole entry): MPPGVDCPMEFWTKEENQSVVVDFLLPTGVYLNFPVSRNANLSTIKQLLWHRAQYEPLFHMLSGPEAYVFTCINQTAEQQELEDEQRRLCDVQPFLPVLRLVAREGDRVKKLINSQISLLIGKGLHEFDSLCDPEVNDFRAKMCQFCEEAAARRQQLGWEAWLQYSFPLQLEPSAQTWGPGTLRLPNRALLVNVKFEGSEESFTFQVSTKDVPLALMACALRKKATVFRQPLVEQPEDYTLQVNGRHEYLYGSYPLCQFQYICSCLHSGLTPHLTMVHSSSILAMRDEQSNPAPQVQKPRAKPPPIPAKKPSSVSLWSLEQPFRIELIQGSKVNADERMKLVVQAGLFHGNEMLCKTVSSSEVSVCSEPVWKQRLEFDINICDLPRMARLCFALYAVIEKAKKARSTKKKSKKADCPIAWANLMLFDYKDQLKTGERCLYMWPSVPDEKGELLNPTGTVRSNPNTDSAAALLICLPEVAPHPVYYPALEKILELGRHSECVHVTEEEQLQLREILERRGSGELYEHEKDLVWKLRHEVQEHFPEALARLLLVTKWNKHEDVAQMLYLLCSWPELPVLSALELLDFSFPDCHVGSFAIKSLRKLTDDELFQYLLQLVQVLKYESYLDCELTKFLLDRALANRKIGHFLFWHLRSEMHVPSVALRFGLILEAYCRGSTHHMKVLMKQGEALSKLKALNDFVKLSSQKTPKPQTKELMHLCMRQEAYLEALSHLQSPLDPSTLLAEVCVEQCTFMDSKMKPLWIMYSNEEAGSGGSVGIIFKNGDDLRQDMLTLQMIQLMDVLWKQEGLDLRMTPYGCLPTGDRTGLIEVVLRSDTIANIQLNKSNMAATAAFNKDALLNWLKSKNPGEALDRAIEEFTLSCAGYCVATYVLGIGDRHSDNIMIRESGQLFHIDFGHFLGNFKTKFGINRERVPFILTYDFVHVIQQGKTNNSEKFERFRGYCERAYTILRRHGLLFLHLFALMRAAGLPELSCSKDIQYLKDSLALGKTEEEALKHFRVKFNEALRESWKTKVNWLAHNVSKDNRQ
human phosphoinositide-3 kinase (PI3K) delta, sequence (Q63787 whole entry partner): as the sequence (Q63787 whole entry partner) above

As to `CO[C@H]1C[C@@H](c2nc3cccc(-c4cnn(C)c4)c3c(=O)n2-c2ccccc2)N(c2nc(N)nc(C)c2C#N)C1` [Example 10, 2-Amino-4-((2S,4S)-4-methoxy-2-(5-(1-methyl-1H-pyrazol-4-yl)-4-oxo-3-phenyl-3,4-dihydroquinazolin-2-yl)pyrrolidin-1-yl)-6-methylpyrimidine-5-carbonitrile], the IC50 in assay [1] came out at 3900 nM; in assay [2], 60 nM.

Regarding `CO[C@H]1C[C@@H](c2nc3cccc(-c4cnn(C)c4)c3c(=O)n2-c2ccccc2)N(c2nc(N)nc3[nH]cnc23)C1` [Example 11, 2-((2S,4S)-1-(2-Amino-9H-purin-6-yl)-4-methoxypyrrolidin-2-yl)-5-(1-methyl-1H-pyrazol-4-yl)-3-phenylquinazolin-4(3H)-one], the IC50 was greater than 10000 nM in assay [1] and 660 nM in assay [2].

For `COc1ncc(-c2cccc3nc([C@@H]4C[C@H](OC)CN4c4nc(N)nc(C)c4C#N)n(-c4ccccc4)c(=O)c23)cn1` [Example 12, 2-Amino-4-((2S,4S)-4-methoxy-2-(5-(2-methoxypyrimidin-5-yl)-4-oxo-3-phenyl-3,4-dihydroquinazolin-2-yl)pyrrolidin-1-yl)-6-methylpyrimidine-5-carbonitrile], the IC50 turned out to be 5900 nM in assay [1] and 28 nM in assay [2].

As for `Cc1nc(N)nc(N2CCC[C@H]2c2nc3cccc(-c4cnn(C)c4)c3c(=O)n2-c2ccccc2)c1C#N` [Example 13, (S)-2-Amino-4-methyl-6-(2-(5-(1-methyl-1H-pyrazol-4-yl)-4-oxo-3-phenyl-3,4-dihydroquinazolin-2-yl)pyrrolidin-1-yl)pyrimidine-5-carbonitrile], the figures for the IC50 in assay [1] and in assay [2] were 1100 nM and 12 nM, respectively.

`Cc1ccccc1-n1c([C@@H]2CCCN2c2ncnc(N)c2C#N)nc2cccc(-c3cnn(C)c3)c2c1=O` [Example 14, (S)-4-Amino-6-(2-(5-(1-methyl-1H-pyrazol-4-yl)-4-oxo-3-(otolyl)-3,4-dihydroquinazolin-2-yl)pyrrolidin-1-yl)pyrimidine-5-carbonitrile]: the IC50 amounted to 3300 nM in assay [1] and 8 nM in assay [2].

In the case of `Cn1cnc(-c2cccc3nc([C@@H]4CCCN4c4ncnc(N)c4C#N)n(-c4ccccc4)c(=O)c23)c1` [Example 15, (S)-4-Amino-6-(2-(5-(1-methyl-1H-imidazol-4-yl)-4-oxo-3-phenyl-3,4-dihydroquinazolin-2-yl)pyrrolidin-1-yl)pyrimidine-5-carbonitrile], the figures for the IC50 in assay [1] and in assay [2] were greater than 10000 nM and 5400 nM, respectively.

Consider `Cc1nc(N)nc(N2C[C@@H](O)C[C@H]2c2nc3cccc(-c4cnn(C)c4)c3c(=O)n2-c2ccccc2)c1C#N` [Example 16, 2-Amino-4-((2S,4S)-4-hydroxy-2-(5-(1-methyl-1H-pyrazol-4-yl)-4-oxo-3-phenyl-3,4-dihydroquinazolin-2-yl)pyrrolidin-1-yl)-6-methylpyrimidine-5-carbonitrile], for which the values for the IC50 in assay [1] and in assay [2] were 2700 nM and 8 nM, respectively.

With `Cc1nc(N)nc(N2CCC[C@H]2c2nc3cccc(-c4cncnc4)c3c(=O)n2-c2ccccc2)c1C#N` [Example 17, (S)-2-Amino-4-methyl-6-(2-(4-oxo-3-phenyl-5-(pyrimidin-5-yl)-3,4-dihydroquinazolin-2-yl)pyrrolidin-1-yl)pyrimidine-5-carbonitrile], the IC50 in assay [1] is 5800 nM; in assay [2], less than 3 nM.

On to `COc1cncc(-c2cccc3nc([C@@H]4CCCN4c4nc(N)nc(C)c4C#N)n(-c4ccccc4)c(=O)c23)c1` [Example 18, (S)-2-Amino-4-(2-(5-(5-methoxypyridin-3-yl)-4-oxo-3-phenyl-3,4-dihydroquinazolin-2-yl)pyrrolidin-1-yl)-6-methylpyrimidine-5-carbonitrile], for which the values for the IC50 in assay [1] and in assay [2] were 420 nM and less than 3 nM, respectively.
